“Also recorded” adds a separate entry of the source. Structures can show the parent of a compound that is named as a salt. Where two headings read alike, the source gives them in different places. Where only a bound is given, the exact number is not on record here.

The source of these data is patent publication US20230054895A1, “METHODS FOR INDUCING BIOSTASIS IN A CELL, TISSUE OR ORGAN” (PRESIDENT AND FELLOWS OF HARVARD COLLEGE, priority 2020, published 2023).

In series [1] the test system is Xenopus tadpoles. Put plainly: Oxygen consumption of Xenopus tadpoles and embryos. The series is classed as in vivo, Xenopus laevis.
Series [2] concerns Xenopus tadpoles. Put plainly: Movement / swimming of Xenopus tadpoles (stasis and reversal). The series is classed as in vivo, Xenopus laevis.
Series [3] relates to Xenopus embryos. From the text: Developed tail length assay are used to assess embryo tail development during drug contact.
Automated embryo culture and imaging platform with machine vision processing. Analysis pipeline allows screening scale-up to hundreds of embryos at a given time.
The effects of ^2H2O on metabolism were examined in relation to biostasis in vivo. Xenopus embryos were contacted with 0.1×MMR media prepared with various concentrations of ^2H2O.

For series [4], the system named is tadpoles. The experiment in a line: Life span of tadpoles in low-oxygen environments. The series is classed as in vivo, Xenopus. The conditions noted are these: 50% ^2H2O-treated tadpoles; MMR controls 6 hours. How it is done:
At the indicated consumption rate, ^2H2O-treated tadpoles survive for >30 hours as compared to 6 hours for MMR controls.

Series [5] concerns Xenopus tadpoles. The experiment in a line: Movement / swimming of Xenopus tadpoles (stasis and reversal). The series is classed as in vivo, Xenopus laevis. On the procedure:
This slowing of motion is reversible; average movement of the Xenopus tadpoles is returned to pre-treatment levels following removal of Donepezil. […] The drug is removed at 30 minutes, as indicated by the hash-line. Movement resumed within 50 min after drug removal.
To determine if this slowing of movement is reversible, the drug was removed from the culture medium after 30 minutes (denoted by the hashed-line). Movement resumed at the pre-treatment level within 50 min after drug removal.
The effects of SNC-80 and the NCX1 inhibitor KB-R7943 mesylate (also referred to herein as “WC-60) were evaluated alone and in combination. Tadpoles were exposed to SNC-80 at 25 μM for 24 hr continuously, and swimming was assessed. […] Similarly, no effect on oxygen consumption was observed when tadpoles were exposed to KB-R7943 mesylate at 35 uM for 24 h continuously (FIG. 25B).
The source holds these as a separate data set.

The test system of series [6] is Xenopus tadpoles. The experiment in a line: Recovery from Donepezil-induced biostasis in tadpoles (tail length, oxygen consumption). The series is classed as in vivo. The conditions noted are these: 50 mM kestose in MMR vs MMR alone. How it is done: To determine if an agent plays a role in accelerating recovery following induction of biostasis, tadpoles can be treated with a biostasis-inducing agent as described herein, to induce biostasis and then transferred to a medium containing a test agent, or just medium. Recovery is assessed by assessing development rate following recovery (e.g., by measuring tadpole tail length), movement, and oxygen consumption.

Series [7] deals with Xenopus tadpoles. The series is classed as in vivo. The conditions noted are these: 50 uM for 30 min, recovery, tested over 24 h. On the procedure: Tadpoles were then tested over a 24 h period in an automated behavior and cognitive testing platform to measure cognitive or motor function.
Finally, the cognitive and motor function performance of Xenopus tadpoles treated with Donepezil was assessed. […] Following the onset of stasis, the drug was removed and tadpoles were allowed to recover. Tadpoles were then tested over a 24 hour period in an automated behavior and cognitive testing platform to measure whether tadpoles that previously went through stasis had decreased cognitive and motor function performance.

For series [8] the following is noted: high doses; cited from earlier work.
In series [9] the test system is Caco-2 cells. The experiment in a line: Intracellular ATP in Caco-2 cells. The series is classed as cell-based.
Series [10] has as its system Xenopus tadpoles. Put plainly: Oxygen consumption of Xenopus tadpoles and embryos. The series is classed as in vivo, Xenopus laevis. From the text:
Dynamic drug dosing used to examine stasis control parameters (10 tadpoles/chamber, n=3 replicates).
The oxygen consumption assay described herein above was used.
The source holds these as a separate data set.

In series [11] the test system is Caco-2 cells. Put plainly: Respiration / oxygen utilization in Caco-2 cells. The series is classed as cell-based.
Series [12] deals with rats. The conditions noted are these: via delta-2 opioid receptor; cited from earlier work.
The subject of series [13] is mice. The conditions noted are these: FIG. 1, Rawls and Cowan 2006; cited from earlier work.
The subject of series [14] is pig hind limb. Put plainly: Pig hind limb ex vivo perfusion on ULiSSES Platform (biostasis of a pig limb). How it is done: Protocol for Evaluating the Effect of an Agent on Inducing Biostasis of a Pig Limb.
The establishment of biostasis in a mammal according to the methods described herein was evaluated in a pig limb model. Prior to removing a hind limb from the animal, a pre-operation blood draw was preformed to obtain a baseline. The hind limb was removed via an amputation, and four muscle biopsies were immediately taken. For use in RT-PCR, a first biopsy was stored at −80° C. to preserve RNA integrity. For histology, a second biopsy was fixed in formalin and stored at 2-4° C. or at room temperature. For use in ELISA, a third biopsy was snap frozen and stored at −80° C. Finally, in lieu of Microdialysis, a fourth biopsy was snap frozen and stored at −80° C.
The limb was first flushed with 4° C. heparinized Krebs Henseleit Buffer alone. The limb was then weighed and attached to the ULiSSES Platform. The Platform was run subnormothermic relative to […] (e.g., 18-23° C.). During the protocol, the limb was perfused with buffer alone (control) or buffer with SNC-80. Further description of the ULiSSES Platform can be found on the world wide web at www.techbriefs.com/component/content/article/tb/stories/blog/35406.
Following the limb being attached to the platform (time 0 hour), an RNA-preserving biopsy, a formalin-fixed biopsy, and a snap frozen biopsy were taken, and a perfusate sample was also taken. The “perfusate sample” is a sample that is assessed for arterial and […] blood gases, and subjected to a blood chemistry panel to measure sodium, potassium, glucose, and lactate levels. The perfusate sample is further snap frozen for other analyses, including RNAseq and cytokine analysis.
These sampling steps were further repeated at times 3 hours, 6 hours, 12 hours, and 24 hours. At times 9 hours, 15 hours, 18 hours, and 21 hours, a perfusate sample was taken.
The protocol was completed at time 24 hours. The limb was removed from the ULiSSES Platform and weighed. Separate, proof of concept experiments were performed as described above, but were completed at time 6 hours.

The subject of series [15] is Caco-2 cells. The experiment in a line: NAD/NADH live reporting in Caco-2 cells. The series is classed as cell-based. The conditions noted are these: 100 uM, p<0.0005, comparable to positive control sodium oxamate.
Setting [16] is: 50% ^2H2O, 4 days biostasis, 3 days of recovery.
Where [17] appears, read: 25 μM SNC-80, 24 hr continuously.
Setting [18] is: compared to control treated limb.
[19] abbreviates: perfusate, vs control treatment.
The mark [20] stands for this setting: prior to and following treatment.

For the molecule `[2H]O[2H]` [^2H2O, Deuterium oxide], the “oxygen consumption of embryos” value in [1] (50% ^2H2O, within hours of contact) is reported as “reduced oxygen consumption”. The “time to slowed swimming” value in [2] (50% ^2H2O) is not above 10 min. Further, the “concentrations that were toxic” value in series [2] (tadpoles) was more than 70%. Also, the “swimming after return to normal media” value in [2] (without ^2H2O, data not shown) is listed as “returned to normal”. Moreover, the embryo length result in series [3] (50% ^2H2O in 0.1×MMR) is “marked reduction in embryo length”. Also, in [3] (setting [16]), the “adverse effects after recovery” value was “do not exhibit adverse effects” and the “developmental state after recovery” value is on record as “remain developmentally delayed”. Moreover, the “concentrations with no effect on tail length” value in series [3] (Xenopus embryos) is on record as less than 50%. For the same molecule, in [3] (Xenopus embryos, data not shown), the “concentrations that were toxic” value is on record as more than 70%. Moreover, in [4], the “survival in low-oxygen environment at the indicated consumption rate” value is more than 30 h. In series [5] (tadpoles), the “concentrations with no effect on swimming” value is less than 50%.
For `OC[C@H]1O[C@@](CO)(OC[C@@]2(O[C@H]3O[C@H](CO)[C@@H](O)[C@H](O)[C@H]3O)O[C@H](CO)[C@@H](O)[C@@H]2O)[C@@H](O)[C@@H]1O` [kestose], in [6], the “recovery from biostasis induced via Donepezil” value is recorded as “faster recovery”.
For `CCN(CC)CCCN(c1ccccc1)C1Cc2ccccc2C1` [Aprindine], the “oxygen consumption of free swimming tadpoles” value in [1] (25 uM, after 20 min of exposure, vs vehicle controls) is listed as “decreased oxygen consumption”.
As to `Oc1ccc2c3c1O[C@H]1c4[nH]c5ccccc5c4C[C@@]4(O)[C@@H](C2)N(CC2CC2)CC[C@]314` [Naltrindole], the “blocking of the stasis-inducing effects of SNC-80” value in series [1] (concentrations up to 100 uM, 4 h of exposure) was “does not block”.
On to `COc1cc2c(cc1OC)C(=O)C(CC1CCN(Cc3ccccc3)CC1)C2` (stereo not shown) [Donepezil, 2-((1-Benzylpiperidin-4-yl)methyl)-5,6-dimethoxy-2,3-dihydro-1H-inden-1-one], for which, in series [7], the cognitive performance result is reported as “may have slightly improved cognitive performance”. Besides, in series [3] (Xenopus tadpoles, compared to vehicle control or SNC-80), the tail length result was “reduced tail length”. Besides, in [5] (50 uM Donepezil), the “time to slowing of motion after drug addition” value is not above 10 min. Moreover, the “time to resumption of movement after drug removal” value in [5] (50 uM Donepezil removed at 30 minutes) is reported as not above 50 min.
In the case of `N=C(N)SCCc1ccc(OCc2ccc([N+](=O)[O-])cc2)cc1` [KB-R7943 mesylate], the “oxygen consumption in tadpoles” value was “no effect” in series [1] (35 μM KB-R7943 mesylate, 24 h continuously) and “No change” in series [1] (35 μM KB-R7943 mesylate, 24 h continuously, listed as KB-R7943 Mesylate). Further, the swimming result in [5] (KB-R7943 mesylate, data not shown) was “decreased swimming”.
For `C=CCN1C[C@H](C)N([C@H](c2ccc(C(=O)N(CC)CC)cc2)c2cccc(OC)c2)C[C@H]1C` [SNC-80, (+)-4-[(αR)-α-((2S,5R)-4-Allyl-2,5-dimethyl-1-piperazinyl)-3-methoxybenzyl]-N,N-diethylbenzamide], the convulsions entry in series [8] is given as “produces convulsions at high doses”. In addition, the “oxygen consumption in tadpoles” value in series [1] (setting [17]) is recorded as “No change; also recorded: normal”; in series [1] (stasis inducing concentration of SNC-80 in combination with 100 uM Naltrindole), “remains decreased”. Also, the “oxygen consumption of embryos” value in series [1] (Xenopus embryos, FIG. 7) is listed as “reduces oxygen consumption”. Also, the “biostatic effect in Xenopus laevis tadpoles” value in [2] (FIG. 8) is reported as “reversible biostatic effect”. In addition, the “concentration resulting in arrest of tadpole movement” value in [2] (Xenopus tadpoles) is more than 100 µM. In addition, in series [2] (high-dose administration), the “movement of whole animals” value is listed as “completely arrested”. Besides, the “reduction of embryo length compared to control” value in [3] (0.4 μM SNC-80 (n=5) vs control (n=6), end of dosing period t=48 h) is 19.8%. The “embryo length after drug removed” value in series [3] (0.4 μM SNC-80, after drug removal) is “caught up to controls”. For the same molecule, the entries for the “intracellular ATP” value in series [9] and in [9] (listed as SNC80) were “reduction in intracellular ATP levels” and “reduces intracellular ATP”, respectively. Further, in series [10] (60 μM dose, dynamic dosing, 10 tadpoles/chamber, n=3), the “delay in impacting oxygen metabolism” value was approximately 10 min. The “oxygen consumption and other metrics of metabolic rate” value in [10] (healthy tissues and Xenopus tadpoles, dose dependence) is on record as “dose-dependent reduction in oxygen consumption”. Moreover, the induction of biostasis entry in [5] (25 μM SNC-80) was “not sufficient to induce biostasis”. Moreover, the swimming entry in [5] (setting [17]) was “normal swimming”. Besides, the “reversibility of movement arrest” value in [5] (removal / withdrawal of the drug) is on record as “reversed upon withdrawal of the drug; also recorded: reversed by removal of the drug”. Also, the results for the “respiration / oxygen utilization” value in [11] and in series [11] (listed as SNC80) were “did not inhibit oxygen utilization” and “respiration unchanged”, respectively. Further, the hypothermia entry in series [12] is given as “induce hypothermia”; in series [13], “induces hypothermia”. The “relative metabolic rate in hind limb” value in [14] (3 hours post treatment, slope vs control P<0.0001) is recorded as “marked reduction of metabolic rate; also recorded: noticeable reduction”; in [14] (vs control (perfusion medium alone)), “markedly reduces metabolic rate”. Besides, the “oxygen uptake in hind limb” value is reported as “noticeable reduction” in [14] (10 hours post-treatment, vs control treated limb); “marked reduction” in series [14] (24 hours post-treatment, vs control treated limb); “markedly reduces oxygen uptake” in series [14] (setting [18]). In addition, the “change in mass of limb prior to and following treatment” value in series [14] (setting [18]) was “larger change in a mass; also recorded: greater difference”. Besides, in series [14] (data not shown), the “oxygen uptake levels relative to hypothermic conditions” value was “greater extent than hypothermic conditions”. Also, the glucose level entry in series [14] (setting [19]) is recorded as “No change; also recorded: not a marked difference”. The lactate level entry in series [14] (setting [19]) was “No change; also recorded: not a marked difference”. Further, the potassium level entry in series [14] (setting [19]) is on record as “No change; also recorded: not a marked difference”. Besides, the “glycogen content inside the cells (PAS, optical density)” value in series [14] (setting [20]) was “remains at a basal level”. Besides, in series [14] (setting [20]), the “intercellular edema (histology of limb muscle)” value was “increase in intercellular edema”. Further, the “muscle bundle area (histology)” value in series [14] (setting [20]) was “did not increase significantly”. The NAD/NADH ratio result in series [15] is reported as “significant increase”.
